One assay deals with Cbl-b (Homo sapiens (Human), UniProt Q13191). Put plainly: Cbl-b LCK Ub TR-FRET assay (Cbl-b Lck HTRF). It is filed as biochemical. Conditions: for IC50: Cbl-b LCK Ub TR-FRET; for fold-selectivity (Cbl-b over C-cbl): ratio C-cbl Lck HTRF IC50 / Cbl-b Lck HTRF IC50. The essentials: (§1)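 Signal is read once the detection mix has stood 20 min at ambient temperature. Curves are anchored by DMSO as maximum and by omission of LCK as minimum.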

A further assay deals with c-Cbl (Homo sapiens (Human), UniProt P22681). Nature of the assay: C-Cbl LCK Ub TR-FRET assay (C-cbl Lck HTRF). It is filed as biochemical. The essentials:
as §1
For orientation: TR-FRET usually uses a lanthanide donor and a delayed reading to cut background.

Assay [1] has as its target Human Cbl-b (residues 40-426) (Homo sapiens (Human), UniProt Q13191). Nature of the assay: Cbl-b SPR assay. Conditions: for Fold of selectivity: C-cbl SPR Kd vs Cbl-b SPR Kd; for Kd: SPR, 20° C. Format: binding. The gist of the method: (§2)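 First, protein is captured to 1300-1500 RU. Then compound runs in single cycle kinetics, a blank plus 5 two-fold concentrations up to 500 nM (120 s contact, 50 μl/min, 450 s dissociation). Chaser injections (20 s, 30 μl/min) track occupancy, giving kd, which is fixed when fitting the titration.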

The target of a further assay is c-Cbl (residues 47-435) (Homo sapiens (Human), UniProt P22681). Nature of the assay: c-Cbl SPR assay. It is filed as binding. Conditions: 20° C. The gist of the method: as §2
c-Cbl (residues 47-435), sequence (P22681 47-435): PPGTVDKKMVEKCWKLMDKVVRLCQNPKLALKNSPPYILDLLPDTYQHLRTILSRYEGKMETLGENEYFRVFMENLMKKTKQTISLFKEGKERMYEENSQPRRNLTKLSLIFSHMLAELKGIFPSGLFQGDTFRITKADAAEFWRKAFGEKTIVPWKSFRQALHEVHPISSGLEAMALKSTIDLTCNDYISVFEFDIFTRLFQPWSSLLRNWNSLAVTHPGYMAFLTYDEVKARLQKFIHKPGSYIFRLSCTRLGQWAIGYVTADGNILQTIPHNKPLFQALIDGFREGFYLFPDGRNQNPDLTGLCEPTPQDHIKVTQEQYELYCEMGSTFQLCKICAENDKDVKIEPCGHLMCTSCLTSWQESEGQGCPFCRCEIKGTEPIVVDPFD
(Surface plasmon resonance follows binding to a sensor surface in real time, without labels.)

As a reminder, the IC50 is the concentration that inhibits the measured activity by half. A high value points to lower potency. As usually defined, the Kd is the constant that tells how readily two partners part at equilibrium. Low readings indicate a tighter complex, high ones a looser complex.

Cbl-b, sequence (Q13191 40-426): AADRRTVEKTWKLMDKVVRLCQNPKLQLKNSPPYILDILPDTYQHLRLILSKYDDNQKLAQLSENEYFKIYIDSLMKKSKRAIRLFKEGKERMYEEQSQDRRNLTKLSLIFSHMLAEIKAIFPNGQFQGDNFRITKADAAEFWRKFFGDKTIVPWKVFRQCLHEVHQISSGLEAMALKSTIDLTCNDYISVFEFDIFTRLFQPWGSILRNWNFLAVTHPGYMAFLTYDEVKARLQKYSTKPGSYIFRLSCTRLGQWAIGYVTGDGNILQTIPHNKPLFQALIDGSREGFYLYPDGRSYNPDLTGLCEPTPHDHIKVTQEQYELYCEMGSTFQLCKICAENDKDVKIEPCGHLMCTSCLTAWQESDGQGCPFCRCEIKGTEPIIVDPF
Human Cbl-b (residues 40-426), sequence (Q13191 40-426): as above
c-Cbl, sequence (P22681 47-435): as the sequence (P22681 47-435) above

Turning to `Cn1cnnc1[C@]1(c2cccc(N3Cc4c(cc(CNC5(C)CCC5)cc4C(F)(F)F)C3=O)c2)C[S@+]([O-])C1` [Compound 330, 2-(3-((1s,3s)-3-(4-methyl-4H-1,2,4-triazol-3-yl)-1-oxidothietan-3-yl)phenyl)-6-(((1-methylcyclobutyl)amino)methyl)-4-(trifluoromethyl)isoindolin-1-one], the IC50 worked out at 200 nM against Cbl-b and 390 nM at c-Cbl. On Cbl-b, the “fold-selectivity (Cbl-b over C-cbl)” value is listed as 1.9x. Also, the Fold of selectivity in assay [1] worked out at 11×. For the same compound, the Kd in assay [1] amounted to 110 nM; on c-Cbl (residues 47-435), 1200 nM.
Consider `Cn1cnnc1C1(c2cccc(N3Cc4c(cc(CNC5(C)CCC5)cc4C(F)(F)F)C3=O)c2)C[S+]([O-])C1` (stereo not drawn) [Compound 331, 2-(3-((1r,3r)-3-(4-methyl-4H-1,2,4-triazol-3-yl)-1-oxidothietan-3-yl)phenyl)-6-(((1-methylcyclobutyl)amino)methyl)-4-(trifluoromethyl)isoindolin-1-one], for which, on Cbl-b, inhibition was half-maximal at 29 nM (IC50) and the “fold-selectivity (Cbl-b over C-cbl)” value came to 3.8x. Further, on c-Cbl, the IC50 worked out at 110 nM. Also, in assay [1], the Fold of selectivity is given as 8× and binding was put at a Kd of 15 nM. Binding on c-Cbl (residues 47-435) was put at a Kd of 120 nM.
`Cn1cnnc1[C@]1(c2cccc(N3Cc4c(cc(CNC5(C)CCC5)cc4C(F)(F)F)C3=O)c2)C[C@@H](OC(F)F)C1` [Compound 334, 2-(3-((1r,3r)-3-(difluoromethoxy)-1-(4-methyl-4H-1,2,4-triazol-3-yl)cyclobutyl)phenyl)-6-(((1-methylcyclobutyl)amino)methyl)-4-(trifluoromethyl)isoindolin-1-one]: on Cbl-b, half-maximal inhibition (IC50) required 5.9 nM and the “fold-selectivity (Cbl-b over C-cbl)” value was found to be 2.5x. Moreover, the IC50 against c-Cbl was 14 nM. Moreover, in assay [1], the Fold of selectivity stood at 26× and binding was characterised by a dissociation constant (Kd) of 0.85 nM. On c-Cbl (residues 47-435), this compound yielded a Kd of 22 nM.
Take `Cn1cnnc1[C@]1(c2cccc(N3Cc4c(cc(CNC5(C)CCC5)cc4C(F)(F)F)C3=O)c2)C[C@H](OC(F)F)C1` [Compound 335, 2-(3-((1s,3s)-3-(difluoromethoxy)-1-(4-methyl-4H-1,2,4-triazol-3-yl)cyclobutyl)phenyl)-6-(((1-methylcyclobutyl)amino)methyl)-4-(trifluoromethyl)isoindolin-1-one]: the 50% inhibitory concentration (IC50) against Cbl-b turned out to be 8.8 nM; against c-Cbl, 26 nM. In addition, at Cbl-b, the “fold-selectivity (Cbl-b over C-cbl)” value was found to be 3.0x. In assay [1], this compound displayed a Fold of selectivity of 17×. The values for the Kd (in assay [1]; at c-Cbl (residues 47-435)) were 2.6 nM and 45 nM, respectively.
Consider `CCNc1cc([C@]2(c3nncn3C)C[C@H](C)C2)cc(N2Cc3c(cc(CNC4(C)CCC4)cc3C(F)(F)F)C2=O)c1F` [Compound 336, 2-(3-(ethylamino)-2-fluoro-5-((1r,3r)-3-methyl-1-(4-methyl-4H-1,2,4-triazol-3-yl)cyclobutyl)phenyl)-6-(((1-methylcyclobutyl)amino)methyl)-4-(trifluoromethyl)isoindolin-1-one], for which the IC50 on Cbl-b is 7.4 nM; on c-Cbl it was 9.1 nM. The “fold-selectivity (Cbl-b over C-cbl)” value at Cbl-b was 1.2x. In assay [1], this compound returned a Fold of selectivity of 4.1×. For the same compound, the dissociation constant Kd is 3.2 nM in assay [1] and 13 nM at c-Cbl (residues 47-435).
With `CCNc1cc([C@]2(c3nncn3C)C[C@@H](C)C2)cc(N2Cc3c(cc(CNC4(C)CCC4)cc3C(F)(F)F)C2=O)c1F` [Compound 337, 2-(3-(ethylamino)-2-fluoro-5-((1s,3s)-3-methyl-1-(4-methyl-4H-1,2,4-triazol-3-yl)cyclobutyl)phenyl)-6-(((1-methylcyclobutyl)amino)methyl)-4-(trifluoromethyl)isoindolin-1-one], on Cbl-b, half-maximal inhibition (IC50) was put at 6.2 nM and the “fold-selectivity (Cbl-b over C-cbl)” value is recorded as 1.2x. The same compound displayed an IC50 at c-Cbl of 7.8 nM. In assay [1], this compound had a Fold of selectivity of 3.4× and a Kd of 1.9 nM. For the same compound, the Kd at c-Cbl (residues 47-435) stood at 6.5 nM.

The record behind these values is patent publication US12187709B2 (Genentech, Inc., priority 2021, dated 2025).
